Measured values: US8999940B2 (Ipsen Pharma S.A.S., priority 2008, dated 2015)

Columns and labels:
[1] = Rat plasma half-life assay; format: in vitro ADME; details: 37° C., LC-MS, read-out: Rat Plasma T½ (converted)
[2] = Human plasma half-life assay; format: in vitro ADME; details: 37° C., LC-MS, read-out: Human Plasma T½ (converted)
[3] = molecular target: T1, human recombinant GIP receptor (Homo sapiens, UniProt P48546); assay: In vitro hGIP receptor binding assay
T1 construct: expressed in transfected cells; host or cells: CHO-K1 clonal cells (membrane preparation)
T1 sequence (P48546 22-466): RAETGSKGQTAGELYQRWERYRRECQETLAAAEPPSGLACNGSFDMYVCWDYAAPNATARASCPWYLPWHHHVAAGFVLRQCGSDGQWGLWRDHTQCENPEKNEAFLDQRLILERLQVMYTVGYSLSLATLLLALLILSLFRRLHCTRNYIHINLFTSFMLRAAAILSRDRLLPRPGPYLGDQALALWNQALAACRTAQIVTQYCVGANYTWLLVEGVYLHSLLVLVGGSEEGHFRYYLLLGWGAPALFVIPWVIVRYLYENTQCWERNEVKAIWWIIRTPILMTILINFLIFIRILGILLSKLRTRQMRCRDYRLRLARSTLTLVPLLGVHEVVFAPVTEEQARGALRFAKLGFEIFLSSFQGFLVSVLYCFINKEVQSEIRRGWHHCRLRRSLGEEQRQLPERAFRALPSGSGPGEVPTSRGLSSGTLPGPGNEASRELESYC
Protocol: A. In Vitro hGIP Receptor Binding Assay […] The incubations were terminated by rapid filtration through GF/C filters (pre-soaked in 0.5% polyethylenimine) using a Brandel filtration manifold. Each tube and filter were then washed three times with 5-ml aliquots of ice-cold buffer.

SMILES	half-life at 0.1 mg/ml [1] [h]	half-life at 0.1 mg/ml [2] [h]	Ki [3] [nM]
CC[C@H](C)[C@H](NC(=O)[C@H](CCCCN)NC(=O)[C@H](CC(=O)O)NC(=O)[C@H](CCSC)NC(=O)[C@H](C)NC(=O)[C@@H](NC(=O)C1(NC(=O)[C@H](Cc2ccc(O)cc2)NC(=O)[C@H](CC(=O)O)NC(=O)[C@H](CO)NC(=O)[C@@H](NC(=O)[C@H](Cc2ccccc2)NC(=O)[C@@H](NC(=O)CNC(=O)[C@H](CCC(=O)O)NC(=O)C(C)(C)NC(=O)[C@@H](N)Cc2ccc(O)c(OC)c2)[C@@H](C)O)[C@@H](C)CC)CCCC1)[C@@H](C)CC)C(=O)N[C@@H](Cc1c[nH]cn1)C(=O)N[C@@H](CCC(N)=O)C(=O)N[C@@H](CCC(N)=O)C(=O)N[C@@H](CC(=O)O)C(=O)N[C@@H](Cc1ccccc1)C(=O)N[C@H](C(=O)N[C@@H](CC(N)=O)C(=O)N[C@@H](Cc1c[nH]c2ccccc12)C(=O)N[C@@H](CC(C)C)C(=O)N[C@@H](CC(C)C)C(=O)N[C@@H](C)C(=O)N[C@@H](CCC(N)=O)C(=O)N[C@@H](CCCCN)C(=O)NCC(=O)N[C@@H](CCCCN)C(=O)N[C@@H](CCCCN)C(=O)N[C@@H](CC(N)=O)C(=O)N[C@@H](CC(=O)O)C(=O)N[C@@H](Cc1c[nH]c2ccccc12)C(=O)N[C@@H](CCCCN)C(=O)N[C@@H](Cc1c[nH]cn1)C(=O)N[C@@H](CC(N)=O)C(=O)N[C@H](C(=O)N[C@H](C(=O)N[C@@H](CCC(N)=O)C(=O)N[C@@H](Cc1c[nH]cn1)C(=O)O)[C@@H](C)O)[C@@H](C)CC)C(C)C [Example 73, (3MeO-Tyr^1, Aib^2, A5c^11, His^43)hGIP(1-43)-OH]	11.8	28.6	3.9
CC[C@H](C)[C@H](NC(=O)[C@H](CCCCN)NC(=O)[C@H](CC(=O)O)NC(=O)C1(NC(=O)[C@H](C)NC(=O)[C@@H](NC(=O)C2(NC(=O)[C@H](Cc3ccc(O)cc3)NC(=O)[C@H](CC(=O)O)NC(=O)[C@H](CO)NC(=O)[C@@H](NC(=O)[C@H](Cc3ccccc3)NC(=O)[C@@H](NC(=O)CNC(=O)[C@H](CCC(=O)O)NC(=O)C(C)(C)NC(=O)[C@@H](N)Cc3ccc(O)c(OC)c3)[C@@H](C)O)[C@@H](C)CC)CCCC2)[C@@H](C)CC)CCCC1)C(=O)N[C@@H](Cc1c[nH]cn1)C(=O)N[C@@H](CCC(N)=O)C(=O)N[C@@H](CCC(N)=O)C(=O)N[C@@H](CC(=O)O)C(=O)N[C@@H](Cc1ccccc1)C(=O)N[C@H](C(=O)N[C@@H](CC(N)=O)C(=O)N[C@@H](Cc1c[nH]c2ccccc12)C(=O)N[C@@H](CC(C)C)C(=O)N[C@@H](CC(C)C)C(=O)N[C@@H](C)C(=O)N[C@@H](CCC(N)=O)C(=O)N[C@@H](CCCCN)C(=O)NCC(=O)N[C@@H](CCCCN)C(=O)N[C@@H](CCCCN)C(=O)N[C@@H](CC(N)=O)C(=O)N[C@@H](CC(=O)O)C(=O)N[C@@H](Cc1c[nH]c2ccccc12)C(=O)N[C@@H](CCCCN)C(=O)N[C@@H](Cc1c[nH]cn1)C(=O)N[C@@H](CC(N)=O)C(=O)N[C@H](C(=O)N[C@H](C(=O)N[C@@H](CCC(N)=O)C(=O)N[C@@H](Cc1c[nH]cn1)C(=O)O)[C@@H](C)O)[C@@H](C)CC)C(C)C [Example 74, (3MeO-Tyr^1, Aib^2, A5c^11, 14, His^43)hGIP(1-43)-OH]	12.8	> 50	9.34
